Measured values as given in patent US20240000872A1, “NOVEL BACTERIOPHAGE THAT LYSES ACINETOBACTER GENUS BACTERIA HAVING RESISTANCE TO ANTIBIOTICS” (priority 2020, published 2024).

System: Acinetobacter baumannii strains
Assay: Antibiotic susceptibility test (CLSI disk diffusion test method, read per CLSI 2016)
Assay type: cell-based
Protocol: Strain identification was performed using a kit such as AT 32 GN system (bioMérieux, Marcy l'Etoile, France). […] In Table 2 below, S, I, and R are the results obtained by evaluating susceptibility to the antibacterial agents, in which ‘S’ means susceptible, ‘I’ means intermediate, and ‘R’ means resistant.
Strain identification was performed using a kit such as ATB 32 GN system (bioMédrieux, Marcy l'Etoile, France). […] In Table 6 below, S, I, and R are the results obtained by evaluating susceptibility to the antibacterial agents, in which ‘S’ means susceptible, ‘I’ means intermediate, and ‘R’ means resistant.
Strain identification was performed using a kit such as ATB 32 GN system (bioMérieux, Marcy l'Etoile, France). […] In Table 10 below, S, I, and R are the results obtained by evaluating susceptibility to the antibacterial agents, in which ‘S’ means susceptible, T means intermediate, and ‘R’ means resistant.

Q: What does the source list for `CCN1CCN(C(=O)N[C@@H](C(=O)N[C@@H]2C(=O)N3[C@@H]2SC(C)(C)[C@@H]3C(=O)O)c2ccccc2)C(=O)C1=O` [Piperacillin, piperacillin]?
A: antibiotic susceptibility class (host strain YMC14/01/C29): R; antibiotic susceptibility class (host strain YMC14/01/IP122): R; antibiotic susceptibility class (host strain YMC14/01/L8): R; antibiotic susceptibility class (host strain YMC14/01/P31): R; antibiotic susceptibility class (host strain YMC14/01/P117): R; antibiotic susceptibility class (host strain YMC14/01/P224): R; antibiotic susceptibility class (host strain YMC14/01/P727): R; antibiotic susceptibility class (host strain YMC14/01/P728): R; antibiotic susceptibility class (host strain YMC14/01/R130): R; antibiotic susceptibility class (host strain YMC14/01/R160): R; antibiotic susceptibility class (host strain YMC14/01/R198): R; antibiotic susceptibility class (host strain YMC14/01/R257): R; antibiotic susceptibility class (host strain YMC14/01/R270): R; antibiotic susceptibility class (host strain YMC14/01/R324): R; antibiotic susceptibility class (host strain YMC14/01/R443): R; antibiotic susceptibility class (host strain YMC14/01/R451): R; antibiotic susceptibility class (host strain YMC14/01/R560): R; antibiotic susceptibility class (host strain YMC14/01/R617): R; antibiotic susceptibility class (host strain YMC14/01/R671): R; antibiotic susceptibility class (host strain YMC14/01/R732): R; antibiotic susceptibility class (host strain YMC14/01/R767): R; antibiotic susceptibility class (host strain YMC14/01/R904): R; antibiotic susceptibility class (host strain YMC14/01/R905): R; antibiotic susceptibility class (host strain YMC14/01/R921): R; antibiotic susceptibility class (host strain YMC14/01/R941): R; antibiotic susceptibility class (host strain YMC14/01/R958): R; antibiotic susceptibility class (host strain YMC14/01/R1006): R; antibiotic susceptibility class (host strain YMC14/01/R1199): R; antibiotic susceptibility class (host strain YMC14/01/R1659): R; antibiotic susceptibility class (host strain YMC14/01/R1722): R; antibiotic susceptibility class (host strain YMC14/01/R1752): R; antibiotic susceptibility class (host strain YMC14/01/R2429): R; antibiotic susceptibility class (host strain YMC14/01/R2572): R; antibiotic susceptibility class (host strain YMC14/01/R2855): R; antibiotic susceptibility class (host strain YMC14/01/R2945): R; antibiotic susceptibility class (host strain YMC14/01/R3007): R; antibiotic susceptibility class (host strain YMC14/01/R3129): R; antibiotic susceptibility class (host strain YMC14/01/R3317): R; antibiotic susceptibility class (host strain YMC14/01/R3474): R; antibiotic susceptibility class (host strain YMC14/01/R3574): R; antibiotic susceptibility class (host strain YMC14/01/U313): R; antibiotic susceptibility class (host strain YMC14/01/U318): R; antibiotic susceptibility class (host strain YMC14/02/L18): R; antibiotic susceptibility class (host strain YMC14/02/P47): R; antibiotic susceptibility class (host strain YMC14/02/R1860): R; antibiotic susceptibility class (host strain YMC14/02/R2417): R; antibiotic susceptibility class (host strain YMC14/02/R2599): R; antibiotic susceptibility class (host strain YMC14/02/R2668): R; antibiotic susceptibility class (host strain YMC14/02/R2758): R; antibiotic susceptibility class (host strain YMC14/02/R2781): R; antibiotic susceptibility class (host strain YMC14/02/R3106): R; antibiotic susceptibility class (host strain YMC14/02/R3419): R; antibiotic susceptibility class (host strain YMC14/02/U1607): R; antibiotic susceptibility class (host strain YMC14/03/L9): R; antibiotic susceptibility class (host strain YMC14/03/P471): R; antibiotic susceptibility class (host strain YMC14/03/R122): R; antibiotic susceptibility class (host strain YMC14/03/R217): R; antibiotic susceptibility class (host strain YMC14/03/R380): R; antibiotic susceptibility class (host strain YMC14/03/R618): R; antibiotic susceptibility class (host strain YMC14/03/R2144): R; antibiotic susceptibility class (host strain YMC14/03/U4616): R; antibiotic susceptibility class (host strain YMC14/04/R1078): R; antibiotic susceptibility class (host strain YMC14/04/R1080): R; susceptibility category (S/I/R) (host strain YMC14/06/R2359): R; susceptibility category (S/I/R) (host strain YMC14/08/R1169): R; susceptibility category (S/I/R) (host strain YMC14/08/T90): R; susceptibility category (S/I/R) (host strain YMC15/02/R436): R; susceptibility category (S/I/R) (host strain YMC15/02/T28): R; susceptibility category (S/I/R) (host strain YMC15/03/R1604): R; susceptibility category (S/I/R) (host strain YMC15/09/R1869): R; susceptibility category (S/I/R) (host strain YMC16/01/P11): R; susceptibility category (S/I/R) (host strain YMC16/01/R123): R; susceptibility category (S/I/R) (host strain YMC16/01/R198): R; susceptibility category (S/I/R) (host strain YMC16/01/R353): R; susceptibility category (S/I/R) (host strain YMC16/01/R380): R; susceptibility category (S/I/R) (host strain YMC16/01/R397): R; susceptibility category (S/I/R) (host strain YMC16/01/R405): R; susceptibility category (S/I/R) (host strain YMC16/03/R4461): R; susceptibility category (S/I/R) (host strain YMC16/05/R2210): R; susceptibility category (S/I/R) (host strain YMC16/07/R2512): R; susceptibility category (S/I/R) (host strain YMC16/09/R2471): R; susceptibility category (S/I/R) (host strain YMC16/10/R2537): R; susceptibility category (S/I/R) (host strain YMC16/12/B11422): R; susceptibility category (S/I/R) (host strain YMC16/12/B11449): R; susceptibility category (S/I/R) (host strain YMC16/12/B13325): R; susceptibility category (S/I/R) (host strain YMC16/12/P503): R; susceptibility category (S/I/R) (host strain YMC16/12/R4637): R; susceptibility category (S/I/R) (host strain YMC17/01/B8053): R; susceptibility category (S/I/R) (host strain YMC17/01/B10087): R; susceptibility category (S/I/R) (host strain YMC17/01/B12075): R; susceptibility category (S/I/R) (host strain YMC17/01/B13454): R; susceptibility category (S/I/R) (host strain YMC17/01/P518): R; susceptibility category (S/I/R) (host strain YMC17/01/R2812): R; susceptibility category (S/I/R) (host strain YMC17/02/B14): R; susceptibility category (S/I/R) (host strain YMC17/02/B87): R; susceptibility category (S/I/R) (host strain YMC17/02/B721): R; susceptibility category (S/I/R) (host strain YMC17/02/B4039): R; susceptibility category (S/I/R) (host strain YMC17/02/B4520): R; susceptibility category (S/I/R) (host strain YMC17/02/B4864): S; susceptibility category (S/I/R) (host strain YMC17/02/B8414): R; susceptibility category (S/I/R) (host strain YMC17/02/P523): R; susceptibility category (S/I/R) (host strain YMC17/02/R541): R; susceptibility category (S/I/R) (host strain YMC17/02/R2392): R; susceptibility category (S/I/R) (host strain YMC17/03/B4730): R; susceptibility category (S/I/R) (host strain YMC17/03/B5000): R; susceptibility category (S/I/R) (host strain YMC17/03/P971): R; susceptibility category (S/I/R) (host strain YMC17/03/R348): R; susceptibility category (S/I/R) (host strain YMC17/03/R585): R; susceptibility category (S/I/R) (host strain YMC17/03/R1888): R; susceptibility category (S/I/R) (host strain YMC17/03/R3279): R; susceptibility category (S/I/R) (host strain YMC17/03/R4077): R; susceptibility category (S/I/R) (host strain YMC17/03/R4607): R; susceptibility category (S/I/R) (host strain YMC17/04/R488): R; susceptibility category (S/I/R) (host strain YMC17/04/R640): R; susceptibility category (S/I/R) (host strain YMC/17/05/R1095): R
